Test in all cases: microbe, parasite or virus in culture
What all share (format): cell-based, Staphylococcus aureus

One experiment has as its system S. aureus ATCC29213. The settings on record: read-out: MIC for S. aureus strains, ATCC 29213. An excerpt:
(§1) Secondary structure of rpoD mRNA predicted by RNA structure 4.6 software. […] Building from evidence that 12-base antisense PNAs was an effective length, five plausible target sites located in the region that satisfied both above aspects were chosen for synthesis of complementary antisense PNAs at 12-base length. Effective target site in rpoD was verified by modified MIC test of PPNA in four S. aureus strains with different characteristics in resistance phenotype. All PNAs used are covalently conjugated with the same cell penetrating peptide (KFF)3K at the carbon terminus (corresponding to the 3′ end of a conventional oligonucleotide).
(§2) Optimal anti-rpoD PPNA was selected by minimal inhibitory concentration (MIC) results determined for clinical isolates of pathogenic S. aureus species.
(§3) MICs were determined twice by the microdilution assay in sterilized 96-well polypropylene microtiter plates according to the broth microdilution guideline based on Good et al.. Briefly, single colony overnight culture of subjected bacterial cells was diluted to give a final inoculation at 10^5 CFU/mL in duplicate 100 µL Mueller Hinton (MH) broth in a low-binding 96-well microtiter plate. Stocks of PPNA, Scr PPNA and CPPs were added immediately to the indicated final concentrations. Plates were incubated at 35°C in aerobic environment for 24 h of overnight culture. MICs were the lowest PNA concentrations that prevented bacterial growth by visual inspection after overnight (24 h) growth. To verify the specific antisense effect, peptide was also conjugated to a scrambled PNA with a base sequence that was not complementary to the selected target site of rpoD mRNA. To control for nonspecific toxicity, the MIC of the control CPPs (KFF)3K and (RXR)4XB in all cases, was above the limit of measurement, which was 60 or 30 µM.

The subject of a further experiment is MRSA WHO-2. The settings on record: read-out: MIC for S. aureus strains, WHO-2.
From the text: as §1, §2, §3

In experiment [1] the test system is MRSA XIJING (MDR clinical isolate). The settings on record: broth microdilution, MH broth, inoculum 10^5 CFU/mL, 35°C, 24 h, visual inspection, determined twice, read-out: MIC for S. aureus strains, XIJING.
From the text: as §1, §2, §3
In general terms: Broth dilution looks for growth in wells or tubes with falling amounts of substance.

Another experiment concerns MRSA/VISA Mu50. The note with it: broth microdilution, MH broth, inoculum 10^5 CFU/mL, 35°C, 24 h, visual inspection, determined twice, read-out: MIC for S. aureus strains, Mu 50.
From the text: as §1, §2, §3

[2] abbreviates: Staphylococcus aureus, ATCC29213, broth microdilution, MH broth, inoculum 10^5 CFU/mL, 35°C, 24 h, visual inspection, determined twice, antibiotic sensitive QC strain.
Where [3] appears, read: Staphylococcus aureus, broth microdilution, MH broth, inoculum 10^5 CFU/mL, 35°C, 24 h, visual inspection, determined twice, MRSA.

≈ marks a conversion by molar mass, not a printed value. Where two headings read alike, the source gives them in different places. Square brackets hold non-standard residues; d marks the D form. Peptide text beside a SMILES is read from it. Ahx = NCCCCCC(=O)O; βAla = NCCC(=O)O

Turning to `NCCCC[C@H](NC(=O)[C@H](Cc1ccccc1)NC(=O)[C@H](Cc1ccccc1)NC(=O)[C@H](CCCCN)NC(=O)[C@H](Cc1ccccc1)NC(=O)[C@H](Cc1ccccc1)NC(=O)[C@H](CCCCN)NC(=O)[C@H](Cc1ccccc1)NC(=O)[C@H](Cc1ccccc1)NC(=O)[C@@H](N)CCCCN)C(=O)O` [(KFF)3K] (H-KFFKFFKFFK-OH), the MIC in the experiment on S. aureus ATCC29213 (ATCC29213, 24 h) is above 60 µM; in the experiment on MRSA WHO-2 (WHO-2, 24 h), above 60 µM.
With `N=C(N)NCCC[C@H](NC(=O)CCCCCNC(=O)[C@H](CCCNC(=N)N)NC(=O)[C@H](CCCNC(=N)N)NC(=O)CCCCCNC(=O)[C@H](CCCNC(=N)N)NC(=O)[C@H](CCCNC(=N)N)NC(=O)CCCCCNC(=O)[C@H](CCCNC(=N)N)NC(=O)[C@H](CCCNC(=N)N)NC(=O)CCCCCNC(=O)[C@@H](N)CCCNC(=N)N)C(=O)NCCCCCC(=O)NCCC(=O)O` [(RXR)4XB] (H-R[Ahx]RR[Ahx]RR[Ahx]RR[Ahx]R[Ahx][βAla]-OH), the MIC was above 30 µM in experiment [1]; above 30 µM in the experiment on S. aureus ATCC29213 (ATCC29213, 24 h); above 30 µM in the experiment on MRSA WHO-2 (WHO-2, 24 h); above 30 µM with MRSA/VISA Mu50.
As to `CC1(C)S[C@@H]2[C@H](NC(=O)[C@H](N)c3ccccc3)C(=O)N2[C@H]1C(=O)O` [ampicillin], the MIC in experiment [1] (Staphylococcus aureus) was above 1020 µM; with S. aureus ATCC29213 (setting [2]), 1 µM (≈ 0.349 µg/mL); in the experiment with MRSA WHO-2 (setting [3]) it was 256 µM (≈ 89.4 µg/mL); with MRSA/VISA Mu50 (Staphylococcus aureus), above 1020 µM.
On to `CC(C)(O/N=C(\C(=O)N[C@@H]1C(=O)N2C(C(=O)[O-])=C(C[n+]3ccccc3)CS[C@H]12)c1csc(N)n1)C(=O)O` [ceftazidine], for which the MIC in experiment [1] is listed as above 1024 µM; in the experiment on S. aureus ATCC29213 (broth microdilution, MH broth, inoculum 10^5 CFU/mL, 35°C, 24 h, visual inspection, determined twice, antibiotic sensitive QC strain), 8 µM (≈ 4.37 µg/mL); in the experiment on MRSA WHO-2 (broth microdilution, MH broth, inoculum 10^5 CFU/mL, 35°C, 24 h, visual inspection, determined twice, MRSA), 256 µM (≈ 140 µg/mL); in the experiment with MRSA/VISA Mu50, 1024 µM (≈ 560 µg/mL).
For `Cc1onc(-c2ccccc2)c1C(=O)N[C@@H]1C(=O)N2[C@@H]1SC(C)(C)[C@@H]2C(=O)O` [oxacillin], the MIC in experiment [1] (Staphylococcus aureus) was above 1020 µM; in the experiment on S. aureus ATCC29213 (setting [2]), 0.5 µM (≈ 0.201 µg/mL); with MRSA WHO-2 (setting [3]), 512 µM (≈ 206 µg/mL); in the experiment with MRSA/VISA Mu50 (Staphylococcus aureus), above 1020 µM.
